Experimental data as given in US20240074473A1, “METHOD FOR INDUCING HYPERTROPHIC MUSCLE FIBERS FOR INDUSTRIAL MEAT PRODUCTION” (Yeda Research and Development Co. Ltd., priority 2021, published 2024).
Where two headings read alike, the source gives them in different places.

How the values were obtained:
primary mouse myoblasts [1] = experiment: Fusion index of primary mouse myoblasts (MyHC immunostaining); assay type: cell-based
Protocol: (§1) Isolation of and treatment of primary myoblasts. Primary mouse myoblasts were isolated from gastrocnemius muscle using trypsin-tissue dissociation. Briefly, muscle tissues were incubated in Trypsin B (0.25%, Biological Industries) and subjected to mechanical dissociation with a serological pipet. Supernatants were strained and centrifuged. Pellets were grown resuspended in BioAmf-2 media (Biological Industries, Israel) and plated on 10% Matrigel (BD Biosciences)-coated plates at 37° and 5% CO2. For all in vitro experiments, proliferation medium was Bio-Amf2 (Biological Industries, Israel) and Differentiation medium (DM) was DMEM 2% Horse Serum (HS) with 1% Pen/Strep. For fusion assays, cells were trypsinized with Trypsin C (0.05%, Biological Industries) and subjected to two rounds of preplating on uncoated plates to reduce the number of fibroblasts. Cells were plated at a density of 8×10^3 per well in 10% Matrigel-coated 96-well plates in proliferation medium for 24 hours. The following day, proliferation media was replaced either with proliferation media or with DM containing DMSO (Ctrl) or 1 μM ERK1/2 inhibitor (ERKi; SCH772984, Cayman Chemicals), […] RXR antagonist (RXRi; HX-531, Cayman Chemicals), […] Ryanodine receptor antagonist (RYRi; Dantrolene, Cayman Chemicals), 5 μM CaMKII inhibitor (CaMKIIi; KN93, Cayman Chemicals), or with DM for controls.
(§2) Immunofluorescence staining. First passage primary myoblasts isolated from various strains (indicated in figure legends) were plated in 96-well plates or chamber slides and treated as previously described. The cells were fixed with ice cold 4% PFA in PBS for 10 minutes, permeabilized with 0.5% Triton X-100 in PBS for 6 minutes, and blocked in PBS with 0.025% tween, 10% normal horse serum and 10% normal goat serum for 1 hour at room temperature. Primary antibody incubation was done in blocking buffer overnight at 4 degrees, with the following antibodies: Myosin Heavy Chain (MyHC, MF20, DSHB hybridoma supernatant 1:10, or MY-32 ABCAM ab51263 1:400), Myogenin (MYOG sc-13137 SCBT 1:200), pHistone 3 (PH3, ab47297 ABCAM 1:1000), Ki-67 (Cell Marque #275R), RYR (ab2868 ABCAM 1:100), and pCaMKII (SIGMA SAB4504356 1:100). Cells were washed 3 times in PBS with 0.025% tween and then incubated with appropriate secondary antibodies in PBS 1 hour. Where indicated, nuclei were either labeled with DAPI (SIGMA D9542, 5 ug/ml) or Hoechst 33342 (Thermo scientific #62249, 1:2000). Fixed cells at 24 hours post treatment with indicated inhibitors were imaged using the Nikon Eclipse Ti2 microscope (further described in microscopy section). All analysis was performed on at least 1000 nuclei. […]
Quantification of fusion index. Following immunostaining and imaging, a fusion index was quantified by manually identifying nuclei found in a MyHC positive cell with at least 2 nuclei. Then the values were expressed as a percentage of the total nuclei per field. Briefly, in Figures where fusion index is stratified into subgroups of fiber size, the nuclei number in MyHC positive cell was manually quantified in a given field and stratified into groups of mononucleated, bi-nucleated myotubes, myotubes with 3-10 nuclei and myotubes with greater than 10 nuclei. […] Fields were analyzed hourly, and nuclei per cell was quantified and stratified into mononucleated, bi-nucleated, tri-nucleated and cells with ≥4 nuclei.

primary mouse myoblasts [2] = experiment: MYOG positive nuclei in primary mouse myoblasts (immunofluorescence); assay type: cell-based; details: co-treatment with 1 μM ERKi, 24 hrs; HX531 20 uM, Dantrolene 50 uM, BAPTA-AM 10 uM, KN93 5 uM
Protocol: as §1
Immunofluorescence staining. First passage primary myoblasts isolated from various strains (indicated in figure legends) were plated in 96-well plates or chamber slides and treated as previously described. The cells were fixed with ice cold 4% PFA in PBS for 10 minutes, permeabilized with 0.5% Triton X-100 in PBS for 6 minutes, and blocked in PBS with 0.025% tween, 10% normal horse serum and 10% normal goat serum for 1 hour at room temperature. Primary antibody incubation was done in blocking buffer overnight at 4 degrees, with the following antibodies: Myosin Heavy Chain (MyHC, MF20, DSHB hybridoma supernatant 1:10, or MY-32 ABCAM ab51263 1:400), Myogenin (MYOG sc-13137 SCBT 1:200), pHistone 3 (PH3, ab47297 ABCAM 1:1000), Ki-67 (Cell Marque #275R), RYR (ab2868 ABCAM 1:100), and pCaMKII (SIGMA SAB4504356 1:100). Cells were washed 3 times in PBS with 0.025% tween and then incubated with appropriate secondary antibodies in PBS 1 hour. Where indicated, nuclei were either labeled with DAPI (SIGMA D9542, 5 ug/ml) or Hoechst 33342 (Thermo scientific #62249, 1:2000). Fixed cells at 24 hours post treatment with indicated inhibitors were imaged using the Nikon Eclipse Ti2 microscope (further described in microscopy section). All analysis was performed on at least 1000 nuclei. For fixed cells following the timecourse with ERKi or DM (FIG. 1B), images were captured with an inverted Olympus IX83 microscope (further details in microscopy section). All imaging analysis were performed on at least 1000 cells.

primary mouse myoblasts [3] = experiment: qRT-PCR gene expression in primary mouse myoblasts; assay type: cell-based
Protocol: Quantitative real-time PCR (qRT-PCR). Total RNA was isolated using Tri-Reagent (SIGMA) according to the manufacturer's instructions. cDNA was synthesized with the High Capacity cDNA Reverse Transcription Kit (Applied Biosystems according to the manufacturer's instructions. qRT-PCR was performed with SYBR green PCR Master Mix (Applied Biosystems) using the StepOnePlus Real-time PCR system (Applied Biosystems). Values for specific genes were normalize to either Gapdh or Hprt housekeeping control as indicated in Figure legend. Expression was calculated using the ddCT method.
First passage primary mouse derived myoblast were seeded in proliferation media, in equal number in 12-well tissue culture plates that were precoated with 10% Matrigel solution. Following 24 hours to allow for complete attachment, culture media was washed and replaced either with fresh proliferation media (PM), PM supplemented with 1 uM SCH 772984 (ERKi) or differentiation media (DM). After 24 hrs, cells were lysed and RNA was collected. Gene expression analysis was carried out using SYBR green qRT-PCR analysis.

primary mouse myoblasts [4] = experiment: Proliferation markers KI-67 and pH3 staining in primary mouse myoblasts; assay type: cell-based; details: co-treatment of ERKi with CaMKIIi
Protocol: as §2

CaMKII = experiment: Western blot of CaMKII activation (p-CaMKII T287) in myoblasts; assay type: cell-based, mouse; details: co-treatment with ERKi and 5 uM KN93, 24 hrs
Protocol: Western Blot analysis. Cultured cells and whole tissues extracts were prepared with RIPA buffer supplemented with protease inhibitor cocktail (SIGMA P8340), and phosphatase inhibitor cocktails (SIGMA P5726 and P0044). Western blotting was performed using the Mini-PROTEAN Tetra Cell electrophoresis system, and transferred to PVDF membranes. The following primary antibodies concentrations were used p-CAMKII 1:1000 (Abcam ab182647), CaMKII 1:1000 (Cell Signaling 3362), GAPDH 1:10,000 (Abcam ab181602), p-ERK1/2 1:20,000 (SIGMA M9692), ERK1/2 1:40,000 (SIGMA), Myosin Heavy Chain (MF-20 DSHB hybridoma supernatant 1:100) Horseradish peroxidase conjugated secondary anti-mouse, anti-rabbit or anti-goat was used to detect proteins (Jackson Immunology). Western blots were imaged using the Chemidoc Multiplex system (Bio-rad).

primary mouse myoblasts [5] = experiment: Cell motility of myoblasts; assay type: cell-based; details: co-treatment with ERKi and CaMKIIi
[6] = Risk categorization of cell culture media ingredients
Text: Category 1: These cell culture media components are food ingredients/additives that are GRAS or permitted by federal regulation without limitation on use. Exemplary compounds in this category include innocuous ingredients such as sugars, pH buffers, water soluble vitamins, and common antioxidants such as tocopherols.
(§3) Category 2: These cell culture media components are common dietary nutrients and are anticipated to have GRAS status for food use or be permitted by regulation for addition to food. Examples of such compounds include most of the inorganic salts and macronutrients that are present within the cell culture media. […] Majority of nutrients present within the poultry cell-based meat may be readily measured using common validated methods for food composition testing. Batch analyses of multiple lots of the finished product may be obtained to validate the above assumptions. In some instances, consideration of established safe levels (e.g., ADI, UL) derived from a relevant authoritative body (e.g., U.S. FDA, EFSA, JECFA, FSANZ, U.S. EPA) may be leveraged to support safety. If comparisons of anticipated dietary intakes relative to an authoritative reference intake value is used, consideration of additive intakes from all dietary sources may be considered. In the absence of an authoritative reference intake value, published NOAELs from animal toxicology studies may be used to evaluate safety using standard scientific procedures for food safety evaluation. A margin of exposure (MoE) of 100-fold or greater between the NOAEL and estimated dietary intakes from food exposures is typically considered adequate to support safety. in situations where the MoE is <100-fold, additional measures for further reduction of the media component may be necessary, or further characterization of intraspecies/interspecies differences in metabolism may be necessary. These situations also require careful consideration of the regulatory status on a case-by basis (e.g., premarket approval as a food additive or GRAS evaluation required).
For example, situations where the compound is not detectable in finished product or is present at equivalent levels in comparator foods, compounds that are thermo-labile and will be digested during cooking, and/or compounds that are expected to be digested to innocuous compounds following ingestion. Examples of compounds meeting the aforementioned conditions would include recombinant growth factors and serum components. For Category 3 substances a final consideration in the safety assessment process may involve hazard characterization of the potential for a substance to produce toxic biological effects outside of the endpoints measured in a sub-chronic rat toxicity study. Substances with biological activity may require additional hazard characterization related to reproductive and developmental toxicity, or immunotoxicity. Considerations for allergenicity, biological effects in humans (e.g., effects on blood pressure), and synergistic effects with other media components also may be evaluated. […] Examples of category 3 components include recombinant proteins and animal serum.

[7] = Margin of estimated intake below NOAEL of rat toxicity study; assay type: in vivo
Text: as §3

[8] = Maximum estimated dietary exposure to media ingredients per 100 g serving; details: assumption of complete transfer of media components to the finished product on a wt/wt basis
[9] = cell culture media ingredient used during meat production

SMILES: CC(=O)OCOC(=O)CN(CC(=O)OCOC(C)=O)c1ccccc1OCCOc1ccccc1N(CC(=O)OCOC(C)=O)CC(=O)OCOC(C)=O [BAPTA-AM]
- Reduction of ERKi-induced fusion (primary mouse myoblasts [1]; co-treatment with ERKi and BAPTA-AM (10 uM per FIG. 2B)): 81%
- Differentiation (percent of MYOG positive nuclei) on co-treatment with ERKi (primary mouse myoblasts [2]): without affecting early differentiation

SMILES: O=C1CN(/N=C/c2ccc(-c3ccc([N+](=O)[O-])cc3)o2)C(O)=N1 [Dantrolene]
- Reduction of ERKi-induced fusion (primary mouse myoblasts [1]; co-treatment with ERKi and 50 uM Dantrolene): 60%
- Differentiation (percent of MYOG positive nuclei) on co-treatment with ERKi (primary mouse myoblasts [2]): without affecting differentiation

SMILES: CN1c2ccc([N+](=O)[O-])cc2N=C(c2ccc(C(=O)O)cc2)c2cc3c(cc21)C(C)(C)CCC3(C)C [HX531]
- Suppression of ERKi-induced fusion (primary mouse myoblasts [1]; co-treatment with ERKi and 20 uM HX531, 24 hours): 47%
- Differentiation (percent of MYOG positive nuclei) on co-treatment with ERKi (primary mouse myoblasts [2]): without affecting differentiation
- Ryr1 and Ryr3 mRNA expression (primary mouse myoblasts [3]; co-treatment with ERKi and RXRi, 24 hours post treatment): downregulation

SMILES: COc1ccc(S(=O)(=O)N(CCO)c2ccccc2CN(C)C/C=C/c2ccc(Cl)cc2)cc1 [KN93]
- Formation of polynucleated myotubes (primary mouse myoblasts [1]; co-treatment with ERKi and 5 uM KN93, bi- and tri-nucleated MyHC+ cells maintained): suppressed
- Differentiation (percent of MYOG positive nuclei) on co-treatment with ERKi (primary mouse myoblasts [2]): remained unaffected
- ERKi-induced elevation of Mymk expression (primary mouse myoblasts [3]; co-treatment with ERKi and CaMKIIi): partially suppressed
- Cell cycle arrest (pH3 staining, p21 and p27 expression) compared to ERKi alone (primary mouse myoblasts [4]): did not affect cell cycle arrest
- CaMKII activation (p-CaMKII T287) (CaMKII): suppressed CaMKII activation
- Cell motility compared to ERKi-treated cells (primary mouse myoblasts [5]): unchanged

SMILES: NCCO [MONOETHANOLAMINE]
- Risk Assessment Category [6]: 2
- Intakes for a 65 kg adult below NOAEL ([7]; rat NOAEL): kg adult are 128 fold
- Maximum Estimated Exposure per 100 g serving [8]: 160 mg

SMILES: O=[Se]([O-])[O-].[Na+].[Na+] [SODIUM SELENITE (ANHY)]
- Risk Assessment Category [6, 9]: 2
- Intakes for a 65 kg adult below NOAEL ([7]; 13 week rat NOAEL): are 133-fold below 13
- Maximum Estimated Exposure per 100 g serving [8]: 0.19 mg

SMILES: O.O.O.O.O.O.O=C([O-])CCC(=O)[O-].[Na+].[Na+] [SODIUM SUCCINATE-2Na 6H20]
- Risk Assessment Category [6, 9]: 2
- Intakes for a 65 kg adult below NOAEL ([7]; NOAEL from 2 year rat study): are >1000 fold below
- Maximum Estimated Exposure per 100 g serving [8]: 40 mg

SMILES: O=C(O)CCC(=O)O [SUCCINIC ACID]
- Intakes for a 65 kg adult below NOAEL ([7]; NOAEL from 2 year rat study): adult are 257-fold
- Maximum Estimated Exposure per 100 g serving [8]: 200 mg
